Results reported in ChEMBL document CHEMBL3885881, “DrugMatrix”.

Species: Rattus norvegicus
Experiment: DrugMatrix - Regimen: Daily Repeat
Assay type: toxicity, organism-based, Sprague-Dawley
Set-up: regimen Daily Repeat, gender Male, age 6-8 weeks
Details: in vivo, po, route oral GAVAGE, vehicle .5 % CMC; for ABSOLUTE BASOPHIL / ABSOLUTE EOSINOPHIL / ABSOLUTE LYMPHOCYTE / ABSOLUTE MONOCYTE / ABSOLUTE SEGMENTED NEUTROPHIL / BASOPHIL / EOSINOPHIL / ERYTHROCYTE COUNT / HEMATOCRIT / HEMOGLOBIN / LEUKOCYTE COUNT / LYMPHOCYTE / MEAN CORPUSCULAR HEMOGLOBIN / MEAN CORPUSCULAR HEMOGLOBIN CONCENTRATION / MEAN CORPUSCULAR VOLUME / MONOCYTE / NEUTROPHIL / NUCLEATED RED BLOOD CELLS / PLATELET COUNT: tissue Blood; for ALANINE AMINOTRANSFERASE / ALBUMIN / ALKALINE PHOSPHATASE / ASPARTATE AMINOTRANSFERASE / BLOOD UREA NITROGEN / CARBON DIOXIDE / CHLORIDE / CHOLESTEROL / CREATINE PHOSPHOKINASE / CREATININE / GLUCOSE / LACTATE DEHYDROGENASE / LIPASE / PHOSPHORUS / POTASSIUM / SODIUM / TOTAL BILIRUBIN / TOTAL PROTEIN / URIC ACID: tissue Plasma
[1] = 0 mg/kg, 72 h, dose level Control, time 3 day
[2] = 0 mg/kg, 120 h, dose level Control, time 5 day
[3] = 60 mg/kg, 72 h, dose level Low, time 3 day
[4] = 60 mg/kg, 120 h, dose level Low, time 5 day

SMILES: CC(C)[C@H]1CC[C@H](C(=O)N[C@H](Cc2ccccc2)C(=O)O)CC1 [NATEGLINIDE]
- ABSOLUTE BASOPHIL [1]: 0 CELLS/uL
- ABSOLUTE EOSINOPHIL [1]: 35.67 CELLS/uL
- ABSOLUTE LYMPHOCYTE [1]: 9125.17 CELLS/uL
- ABSOLUTE MONOCYTE [1]: 50.17 CELLS/uL
- ABSOLUTE SEGMENTED NEUTROPHIL [1]: 722.33 CELLS/uL
- BASOPHIL [1]: 0%
- EOSINOPHIL [1]: 0.33%
- ERYTHROCYTE COUNT [1]: 5.35 x10E6/uL
- HEMATOCRIT [1]: 33.58%
- HEMOGLOBIN [1]: 13.35 G/DL
- LEUKOCYTE COUNT [1]: 9.93 x10E3/uL
- LYMPHOCYTE [1]: 91.67%
- MEAN CORPUSCULAR HEMOGLOBIN [1]: 25 pg
- MEAN CORPUSCULAR HEMOGLOBIN CONCENTRATION [1]: 39.8 G/DL
- MEAN CORPUSCULAR VOLUME [1]: 62.77 fL
- MONOCYTE [1]: 0.67%
- NEUTROPHIL [1]: 7.33%
- NUCLEATED RED BLOOD CELLS [1]: 0 /100WBC
- PLATELET COUNT [1]: 866.17 x10E3/uL
- ALANINE AMINOTRANSFERASE [1]: 57.17 u/L
- ALBUMIN [1]: 4.22 G/DL
- ALKALINE PHOSPHATASE [1]: 391 u/L
- ASPARTATE AMINOTRANSFERASE [1]: 95.17 u/L
- BLOOD UREA NITROGEN [1]: 13.67 mg/dL
- CARBON DIOXIDE [1]: 30 mmol/L
- CHLORIDE [1]: 102.5 MEQ/L
- CHOLESTEROL [1]: 72 mg/dL
- CREATINE PHOSPHOKINASE [1]: 485.67 u/L
- CREATININE [1]: 0.27 mg/dL
- GLUCOSE [1]: 152 mg/dL
- LACTATE DEHYDROGENASE [1]: 372.67 u/L
- LIPASE [1]: 9.83 u/L
- PHOSPHORUS [1]: 12.47 mg/dL
- POTASSIUM [1]: 6.81 MEQ/L
- SODIUM [1]: 144.1 MEQ/L
- TOTAL BILIRUBIN [1]: 0.23 mg/dL
- TOTAL PROTEIN [1]: 5.93 G/DL
- URIC ACID [1]: 1.9 mg/dL
- ABSOLUTE BASOPHIL [2]: 0 CELLS/uL
- ABSOLUTE EOSINOPHIL [2]: 67.33 CELLS/uL
- ABSOLUTE LYMPHOCYTE [2]: 11419.17 CELLS/uL
- ABSOLUTE MONOCYTE [2]: 203.17 CELLS/uL
- ABSOLUTE SEGMENTED NEUTROPHIL [2]: 1327 CELLS/uL
- BASOPHIL [2]: 0%
- EOSINOPHIL [2]: 0.5%
- ERYTHROCYTE COUNT [2]: 5.65 x10E6/uL
- HEMATOCRIT [2]: 35.3%
- HEMOGLOBIN [2]: 13.98 G/DL
- LEUKOCYTE COUNT [2]: 13.02 x10E3/uL
- LYMPHOCYTE [2]: 88%
- MEAN CORPUSCULAR HEMOGLOBIN [2]: 24.78 pg
- MEAN CORPUSCULAR HEMOGLOBIN CONCENTRATION [2]: 39.63 G/DL
- MEAN CORPUSCULAR VOLUME [2]: 62.58 fL
- MONOCYTE [2]: 1.33%
- NEUTROPHIL [2]: 10.17%
- NUCLEATED RED BLOOD CELLS [2]: 0 /100WBC
- PLATELET COUNT [2]: 1213.83 x10E3/uL
- ALANINE AMINOTRANSFERASE [2]: 49.67 u/L
- ALBUMIN [2]: 4.28 G/DL
- ALKALINE PHOSPHATASE [2]: 362.33 u/L
- ASPARTATE AMINOTRANSFERASE [2]: 99 u/L
- BLOOD UREA NITROGEN [2]: 20.67 mg/dL
- CARBON DIOXIDE [2]: 26.33 mmol/L
- CHLORIDE [2]: 102 MEQ/L
- CHOLESTEROL [2]: 63.83 mg/dL
- CREATINE PHOSPHOKINASE [2]: 481.83 u/L
- CREATININE [2]: 0.21 mg/dL
- GLUCOSE [2]: 158 mg/dL
- LACTATE DEHYDROGENASE [2]: 656.33 u/L
- LIPASE [2]: 10.67 u/L
- PHOSPHORUS [2]: 12.27 mg/dL
- POTASSIUM [2]: 6.17 MEQ/L
- SODIUM [2]: 143.35 MEQ/L
- TOTAL BILIRUBIN [2]: 0.17 mg/dL
- TOTAL PROTEIN [2]: 6.13 G/DL
- URIC ACID [2]: 1.48 mg/dL
- ABSOLUTE BASOPHIL [3]: 0 CELLS/uL
- ABSOLUTE EOSINOPHIL [3]: 0 CELLS/uL
- ABSOLUTE LYMPHOCYTE [3]: 9045.33 CELLS/uL
- ABSOLUTE MONOCYTE [3]: 160.67 CELLS/uL
- ABSOLUTE SEGMENTED NEUTROPHIL [3]: 994 CELLS/uL
- BASOPHIL [3]: 0%
- EOSINOPHIL [3]: 0%
- ERYTHROCYTE COUNT [3]: 5.13 x10E6/uL
- HEMATOCRIT [3]: 32.57%
- HEMOGLOBIN [3]: 13.4 G/DL
- LEUKOCYTE COUNT [3]: 10.2 x10E3/uL
- LYMPHOCYTE [3]: 88.33%
- MEAN CORPUSCULAR HEMOGLOBIN [3]: 26.2 pg
- MEAN CORPUSCULAR HEMOGLOBIN CONCENTRATION [3]: 41.17 G/DL
- MEAN CORPUSCULAR VOLUME [3]: 63.67 fL
- MONOCYTE [3]: 1.67%
- NEUTROPHIL [3]: 10%
- NUCLEATED RED BLOOD CELLS [3]: 0 /100WBC
- PLATELET COUNT [3]: 720 x10E3/uL
- ALANINE AMINOTRANSFERASE [3]: 53.67 u/L
- ALBUMIN [3]: 4.27 G/DL
- ALKALINE PHOSPHATASE [3]: 449.67 u/L
- ASPARTATE AMINOTRANSFERASE [3]: 94.67 u/L
- BLOOD UREA NITROGEN [3]: 17 mg/dL
- CARBON DIOXIDE [3]: 30.33 mmol/L
- CHLORIDE [3]: 103.67 MEQ/L
- CHOLESTEROL [3]: 73.67 mg/dL
- CREATINE PHOSPHOKINASE [3]: 447.67 u/L
- CREATININE [3]: 0.2 mg/dL
- GLUCOSE [3]: 149 mg/dL
- LACTATE DEHYDROGENASE [3]: 345.33 u/L
- LIPASE [3]: 8.67 u/L
- PHOSPHORUS [3]: 13 mg/dL
- POTASSIUM [3]: 6.04 MEQ/L
- SODIUM [3]: 145.07 MEQ/L
- TOTAL BILIRUBIN [3]: 0.13 mg/dL
- TOTAL PROTEIN [3]: 5.87 G/DL
- URIC ACID [3]: 1.33 mg/dL
- ABSOLUTE BASOPHIL [4]: 0 CELLS/uL
- ABSOLUTE EOSINOPHIL [4]: 124 CELLS/uL
- ABSOLUTE LYMPHOCYTE [4]: 13794 CELLS/uL
- ABSOLUTE MONOCYTE [4]: 49 CELLS/uL
- ABSOLUTE SEGMENTED NEUTROPHIL [4]: 933 CELLS/uL
- BASOPHIL [4]: 0%
- EOSINOPHIL [4]: 0.67%
- ERYTHROCYTE COUNT [4]: 5.42 x10E6/uL
- HEMATOCRIT [4]: 34.03%
- HEMOGLOBIN [4]: 13.53 G/DL
- LEUKOCYTE COUNT [4]: 14.9 x10E3/uL
- LYMPHOCYTE [4]: 92.33%
- MEAN CORPUSCULAR HEMOGLOBIN [4]: 25 pg
- MEAN CORPUSCULAR HEMOGLOBIN CONCENTRATION [4]: 39.77 G/DL
- MEAN CORPUSCULAR VOLUME [4]: 62.87 fL
- MONOCYTE [4]: 0.33%
- NEUTROPHIL [4]: 6.67%
- NUCLEATED RED BLOOD CELLS [4]: 0 /100WBC
- PLATELET COUNT [4]: 1175.33 x10E3/uL
- ALANINE AMINOTRANSFERASE [4]: 57.67 u/L
- ALBUMIN [4]: 4.2 G/DL
- ALKALINE PHOSPHATASE [4]: 396.67 u/L
- ASPARTATE AMINOTRANSFERASE [4]: 87 u/L
- BLOOD UREA NITROGEN [4]: 20 mg/dL
- CARBON DIOXIDE [4]: 25 mmol/L
- CHLORIDE [4]: 104 MEQ/L
- CHOLESTEROL [4]: 56 mg/dL
- CREATINE PHOSPHOKINASE [4]: 315 u/L
- CREATININE [4]: 0.27 mg/dL
- GLUCOSE [4]: 169.67 mg/dL
- LACTATE DEHYDROGENASE [4]: 303.33 u/L
- LIPASE [4]: 10.67 u/L
- PHOSPHORUS [4]: 12.97 mg/dL
- POTASSIUM [4]: 5.61 MEQ/L
- SODIUM [4]: 144.73 MEQ/L
- TOTAL BILIRUBIN [4]: 0.23 mg/dL
- TOTAL PROTEIN [4]: 5.93 G/DL
- URIC ACID [4]: 1.37 mg/dL
